Patent US7521472B2, “Crystal of two-ring heterocyclic sulfonamide compound” (Eisai R&D Management Co., Ltd., priority 2004, dated 2009)

How the values were obtained:
Assay type in all cases: physicochemical
[1] = Solubility of α-type and β-type crystals in Britton-Robinson buffers (I=0.3); settings: for Solvent amount (ml) required to solve 1 g of compound (1): 25° C. within 30 minutes
Method: (§1) The results are shown in Tables 5 to 8. • (1) Test method:
(§2) The solubility in organic solvents and buffer solutions (Britton-Robinson Buffer: ionic strength (I)=0.3) was examined.
(§3) Specifically, according to the method described in USP 25 (U.S. PHARMACOPEIA 25(USP25), p 8, General Notices, Solubility), crystalline N-(3-chloro-1H-indol-7-yl)-4-sulfamoylbenzenesulfonamide was evaluated in terms of solubility in various organic solvents and Britton-Robinson buffers (pH 3, 5, 7, 9, and 11; I=0.3). The amount of each solvent was recorded that was required to solve a 10-mg sample of (N-(3-chloro-1H-indol-7-yl)-4-sulfamoylbenzenesulfonamide) at 25° C. within 30 minutes. In this study, the container was vigorously shaken for 30 seconds every 5 minutes, and the solubility was visually checked. • (2) Results: […]

[2] = Solubility of α-type and β-type crystals in organic solvents and water (USP 25 method); settings: for Solvent amount (ml) required to solve 1 g of compound (1): 25° C. within 30 minutes
Method: as §1, §2, §3

[3] = Physical properties of the β-type crystal (crystal form stability, hygroscopicity)
[4] = Britton-Robinson Buffer pH 3, I=0.3
[5] = Britton-Robinson Buffer pH 5, I=0.3
[6] = Britton-Robinson Buffer pH 7, I=0.3
[7] = Britton-Robinson Buffer pH 9, I=0.3
[8] = Britton-Robinson Buffer pH 11, I=0.3

SMILES | Solvent amount (ml) required to solve 1 g of compound (1) [1, 4] [mL] | Solvent amount (ml) required to solve 1 g of compound (1) [1, 5] [mL] | Solvent amount (ml) required to solve 1 g of compound (1) [1, 6] [mL] | Solvent amount (ml) required to solve 1 g of compound (1) [1, 7] [mL] | Solvent amount (ml) required to solve 1 g of compound (1) [1, 8] [mL] | Solvent amount (ml) required to solve 1 g of compound (1) ([2]; 1-octanol) [mL] | Solvent amount (ml) required to solve 1 g of compound (1) ([2]; Acetone) [mL] | Solvent amount (ml) required to solve 1 g of compound (1) ([2]; Acetonitrile) [mL] | Solvent amount (ml) required to solve 1 g of compound (1) ([2]; Ethanol) [mL] | Solvent amount (ml) required to solve 1 g of compound (1) ([2]; Ethyl acetate) [mL] | Solvent amount (ml) required to solve 1 g of compound (1) ([2]; Heptane) [mL] | Solvent amount (ml) required to solve 1 g of compound (1) ([2]; Isopropylether) [mL] | Solvent amount (ml) required to solve 1 g of compound (1) ([2]; Methanol) [mL] | Solvent amount (ml) required to solve 1 g of compound (1) ([2]; N,N-dimethylformamide) [mL] | Solvent amount (ml) required to solve 1 g of compound (1) ([2]; Water) [mL] | solubility in the buffer solution compared with the α-type crystal ([1]; Britton-Robinson Buffer, ionic strength 0.3) | solubility in various organic solvents in comparison with the α-type crystal ([2]; for example, ethanol, ethyl acetate) | hygroscopicity [3] | stability of the crystal form ([3]; transformation into other crystal forms or amorphous forms)
NS(=O)(=O)c1ccc(S(=O)(=O)Nc2cccc3c(Cl)c[nH]c23)cc1 [compound (1) (α-type crystal), N-(3-chloro-1H-indol-7-yl)-4-sulfamoylbenzenesulfonamide, reference compound] | >10000 | >10000 | >10000 | >10000 | 993 | >10000 | 21 | 97 | 1194 | 1090 | >10000 | >10000 | 100.4 | 9.6 | >10000 |  |  |  | 
NS(=O)(=O)c1ccc(S(=O)(=O)Nc2cccc3c(Cl)c[nH]c23)cc1 [compound (1) (β-type crystal), N-(3-chloro-1H-indol-7-yl)-4-sulfamoylbenzenesulfonamide] | >10000 | >10000 | >10000 | >10000 | 553 | >10000 | 14 | 74 | 373 | 322 | >10000 | >10000 | 60 | 6 | >10000 | higher solubility | high solubility | non hygroscopicity | stable
